Source: patent publication US10287269B2, “Pyrazolyl pyrimidinone compounds as PDE2 inhibitors” (Merck Sharp & Dohme Corp., priority 2015, dated 2019)

What follows are compounds tested against T1, human PDE2A1 (Homo sapiens, UniProt O00408) (assay: PDE2 IMAP FP inhibition assay, human enzyme (PDE selectivity panel format)). Conditions: Lab A; read-out: Human PDE2 Ki (nM) Lab A.
T1 construct: GST; purchased BPS Bioscience (San Diego, Calif.) 60020; host or cells: insect cells
Type: biochemical
Procedure: Selectivity for PDE2, as compared to other PDE families, was assessed using the IMAP® technology. Human PDE10A2 enzyme was prepared from cytosolic fractions of transiently transfected HEK cells. All other PDE's were GST Tag human enzyme expressed in insect cells and were obtained from BPS Bioscience (San Diego, Calif.): PDE1A (Cat#60010), human PDE2A1 (Cat#60020), PDE3A (Cat#60030), PDE4A1A (Cat#60040), PDE5A1 (Cat#60050), PDE6C (Cat#60060), PDE7A (Cat#60070), PDE8A1 (Cat#60080), PDE9A2 (Cat#60090), PDE11A4 (Cat#60110).
Assays for PDE 1 through 11 were performed in parallel at room temperature in 384-well microtiter plates with an incubation volume of 20.2 μL. Solutions of test compounds were prepared in DMSO and serially diluted with DMSO to yield 30 μL of each of ten solutions differing by 3-fold in concentration, at 32 serial dilutions per plate. […] A Labcyte POD 810 (Labcyte, Sunnyvale, Calif.) was used to dispense 200 nL from each well of the titration plate to make eleven copies of the assay plate for each titration, one copy for each PDE enzyme. A solution of each enzyme (dilution from aliquots, sufficient to produce 20% substrate conversion) and a separate solution of FAM-labeled cAMP or FAM-labeled cGMP from Molecular Devices (Sunnyvale, Calif., product # R7506 or cGMP#R7508), at a final concentration of 50 nM were made in the assay buffer (10 mM Tris HCl, pH 7.2, 10 mM MgCl2, 0.05% NaN3 0.01% Tween-20, and 1 mM DTT). Note that the substrate for PDE2 is 50 nM FAM cAMP containing 1000 nM of cGMP. The enzyme and the substrate were then added to the assay plates in two consecutive additions of 10 μL and then shaken to mix. The reaction was allowed to proceed at room temperature for 60 minutes. A binding solution was then made from the kit components, comprised of 80% Solution A, 20% Solution B and binding reagent at a volume of 1/600 the total binding solution. The enzymatic reaction was stopped by addition of 60 μL of the binding solution to each well of the assay plate. The plates were sealed and shaken for 10 seconds. The plates were incubated at room temperature for one hour, then the parallel and perpendicular fluorescence was measured using a Tecan Genios Pro plate reader (Tecan, Switzerland). The apparent inhibition constants for the compounds against all 11 PDE's was determined from the parallel and perpendicular fluorescent readings as described for PDE10 FP assay using the following apparent KM values for each enzyme and substrate combination: PDE1A (FAM cGMP) 70 nM, human PDE2A1 (FAM cAMP) 10,000 nM, PDE3A (FAM cAMP) 50 nM, PDE4A1A (FAM cAMP) 1500 nM, PDE5A1 (FAM cGMP) 400 nM, PDE6C (FAM cGMP) 700 nM, PDE7A (FAM cAMP) 150 nM, PDE8A1 (FAM cAMP) 50 nM, PDE9A2 (FAM cGMP) 60 nM, PDE10A2 (FAM cAMP) 150 nM, PDE11A4 (FAM cAMP) 1000 nM. The intrinsic PDE2 inhibitory activity of a compound which may be used in accordance with the present invention may be determined by these assays. […]

T1 sequence (O00408 1-920 isoform O00408-2): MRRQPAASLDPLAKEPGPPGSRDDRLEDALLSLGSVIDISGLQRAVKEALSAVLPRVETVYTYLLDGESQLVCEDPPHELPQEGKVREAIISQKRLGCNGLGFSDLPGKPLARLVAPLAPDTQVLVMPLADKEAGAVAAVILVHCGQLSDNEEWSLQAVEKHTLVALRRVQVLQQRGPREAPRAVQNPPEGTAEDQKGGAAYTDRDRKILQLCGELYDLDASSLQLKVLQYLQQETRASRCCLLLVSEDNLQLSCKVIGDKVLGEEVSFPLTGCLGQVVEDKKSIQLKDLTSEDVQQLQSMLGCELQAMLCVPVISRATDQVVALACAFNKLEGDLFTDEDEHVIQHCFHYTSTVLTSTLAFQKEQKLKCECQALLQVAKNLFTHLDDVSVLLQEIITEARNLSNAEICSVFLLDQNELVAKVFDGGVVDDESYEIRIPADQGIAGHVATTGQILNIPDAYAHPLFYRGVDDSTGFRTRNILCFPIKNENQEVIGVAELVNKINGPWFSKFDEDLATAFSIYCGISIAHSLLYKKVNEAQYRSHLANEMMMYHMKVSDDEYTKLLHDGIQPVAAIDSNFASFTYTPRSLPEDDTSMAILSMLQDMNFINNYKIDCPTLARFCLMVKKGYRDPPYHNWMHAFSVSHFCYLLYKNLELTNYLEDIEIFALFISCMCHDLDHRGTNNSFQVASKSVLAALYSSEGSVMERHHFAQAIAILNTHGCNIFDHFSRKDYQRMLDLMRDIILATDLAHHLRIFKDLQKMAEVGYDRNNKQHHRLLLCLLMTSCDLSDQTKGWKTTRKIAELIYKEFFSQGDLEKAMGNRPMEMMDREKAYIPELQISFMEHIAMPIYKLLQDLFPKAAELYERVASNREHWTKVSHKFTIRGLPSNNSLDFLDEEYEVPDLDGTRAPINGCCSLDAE

Row | Compound | Ki [nM]
1 | Cc1nc(-c2cnn([C@H](C)c3c(F)cc(C(F)(F)F)cc3F)c2)cc(=O)[nH]1 (single isomer, unassigned) [Example 7] | 126
2 | Cc1nc(-c2cnn([C@H](C)c3c(F)cc(C(F)(F)F)cc3F)c2)cc(=O)[nH]1 (single isomer, unassigned) [Example 8] | 107
3 | CCc1ccc([C@](C)(O)c2cnn(-c3cc(=O)[nH]c(C)n3)c2)c(F)c1 (single isomer, unassigned) [Example 11] | 42.5
4 | CCc1ccc([C@](C)(O)c2cnn(-c3cc(=O)[nH]c(C)n3)c2)c(F)c1 (single isomer, unassigned) [Example 12] | 244
5 | CCCc1ccc([C@](C)(O)c2cnn(-c3cc(=O)[nH]c(C)n3)c2)c(F)c1 (single isomer, unassigned) [Example 13] | 287
6 | CCCc1ccc([C@](C)(O)c2cnn(-c3cc(=O)[nH]c(C)n3)c2)c(F)c1 (single isomer, unassigned) [Example 14] | 1400
7 | CCc1ccc([C@@H](CO)n2cc(-c3cc(=O)[nH]c(C)n3)cn2)c(Cl)c1 (single isomer, unassigned) [Example 17] | 683
8 | CCc1ccc([C@@H](CO)n2cc(-c3cc(=O)[nH]c(C)n3)cn2)c(Cl)c1 (single isomer, unassigned) [Example 18] | 10.7
9 | Cc1nc(-c2cn(C(C)c3ccc(C(F)(F)F)cc3F)nc2C)cc(=O)[nH]1 (single isomer, unassigned) [Example 69, (R)- or (S)-(6-(1-(1-(2-fluoro-4-(trifluoromethyl)phenyl)ethyl)-3-methyl-1H-pyrazol-4-yl)-2-methylpyrimidin-4(3H)-one] | 32.6
10 | Cc1nc(-c2cn(C(C)c3ccc(C(F)(F)F)cc3F)nc2C)cc(=O)[nH]1 (single isomer, unassigned) [Example 70, (S)- or (R)-(6-(1-(1-(2-fluoro-4-(trifluoromethyl)phenyl)ethyl)-3-methyl-1H-pyrazol-4-yl)-2-methylpyrimidin-4(3H)-one] | 312
11 | Cc1nc(-c2cnn(C(C)c3ccc(C(F)(F)F)cc3F)c2C)cc(=O)[nH]1 (single isomer, unassigned) [Example 71, (R)- or (S)-6-(1-(1-(2-fluoro-4-(trifluoromethyl)phenyl)ethyl)-5-methyl-1H-pyrazol-4-yl)-2-methylpyrimidin-4(3H)-one] | 16.5
12 | Cc1nc(-c2cnn(C(C)c3ccc(C(F)(F)F)cc3F)c2C)cc(=O)[nH]1 (single isomer, unassigned) [Example 72, (S)- or (R)-6-(1-(1-(2-fluoro-4-(trifluoromethyl)phenyl)ethyl)-5-methyl-1H-pyrazol-4-yl)-2-methylpyrimidin-4(3H)-one] | 412
13 | Cc1nc(-c2cnn(C(C)c3ccc(CC(F)(F)F)cc3C)c2)cc(=O)[nH]1 (single isomer, unassigned) [Example 105, (R)- or (S)-2-methyl-6-(1-(1-(2-methyl-4-(2,2,2-trifluoroethyl)phenyl)ethyl)-1H-pyrazol-4-yl)pyrimidin-4(3H)-one] | > 2960
14 | Cc1nc(-c2cnn(C(C)c3ccc(CC(F)(F)F)cc3C)c2)cc(=O)[nH]1 (single isomer, unassigned) [Example 106, (S)- or (R)-2-methyl-6-(1-(1-(2-methyl-4-(2,2,2-trifluoroethyl)phenyl)ethyl)-1H-pyrazol-4-yl)pyrimidin-4(3H)-one] | 710
15 | Cc1nc(-c2cnn(C(C)c3ccc(C4CC4)cc3Cl)c2)cc(=O)[nH]1 (single isomer, unassigned) [Example 107, (R)- or (S)-6-(1-(1-(2-chloro-4-cyclopropylphenyl)ethyl)-1H-pyrazol-4-yl)-2-methylpyrimidin-4(3H)-one] | 9.4
16 | Cc1nc(-c2cnn(C(C)c3ccc(C4CC4)cc3Cl)c2)cc(=O)[nH]1 (single isomer, unassigned) [Example 108, (S)- or (R)-6-(1-(1-(2-chloro-4-cyclopropylphenyl)ethyl)-1H-pyrazol-4-yl)-2-methylpyrimidin-4(3H)-one] | 358
17 | Cc1nc(-c2cnn(C(CO)c3ccc(C(F)(F)F)cc3F)c2)cc(=O)[nH]1 (single isomer, unassigned) [Example 109, (R)- or (S)-6-(1-(1-(2-fluoro-4-(trifluoromethyl)phenyl)-2-hydroxyethyl)-1H-pyrazol-4-yl)-2-methylpyrimidin-4(3H)-one] | 27.5
18 | Cc1nc(-c2cnn(C(CO)c3ccc(C(F)(F)F)cc3F)c2)cc(=O)[nH]1 (single isomer, unassigned) [Example 110, (S)- or (R)-6-(1-(1-(2-fluoro-4-(trifluoromethyl)phenyl)-2-hydroxyethyl)-1H-pyrazol-4-yl)-2-methylpyrimidin-4(3H)-one] | 299
19 | CCc1ccc(C(CO)n2cc(-c3cc(=O)[nH]c(C)n3)cn2)c(F)c1 (single isomer, unassigned) [Example 111, (R)- or (S)-6-(1-(1-(4-ethyl-2-fluorophenyl)-2-hydroxyethyl)-1H-pyrazol-4-yl)-2-methylpyrimidin-4(3H)-one] | 42.5
20 | CCc1ccc(C(CO)n2cc(-c3cc(=O)[nH]c(C)n3)cn2)c(F)c1 (single isomer, unassigned) [Example 112, (S)- or (R)-6-(1-(1-(4-ethyl-2-fluorophenyl)-2-hydroxyethyl)-1H-pyrazol-4-yl)-2-methylpyrimidin-4(3H)-one] | 438
21 | CCc1ccc(C(CO)c2cnn(-c3cc(=O)[nH]c(C)n3)c2)c(F)c1 (single isomer, unassigned) [Example 115, (R)- or (S)-6-(4-(1-(4-ethyl-2-fluorophenyl)-2-hydroxyethyl)-1H-pyrazol-1-yl)-2-methylpyrimidin-4(3H)-one] | 163
22 | CCc1ccc(C(CO)c2cnn(-c3cc(=O)[nH]c(C)n3)c2)c(F)c1 (single isomer, unassigned) [Example 116, (S)- or (R)-6-(4-(1-(4-ethyl-2-fluorophenyl)-2-hydroxyethyl)-1H-pyrazol-1-yl)-2-methylpyrimidin-4(3H)-one] | 537
23 | Cc1nc(-n2cc(C(C)(O)c3ccc(C(F)(F)F)cc3Cl)cn2)cc(=O)[nH]1 (single isomer, unassigned) [Example 117, (R)- or (S)-6-(4-(1-(2-chloro-4-(trifluoromethyl)phenyl)-1-hydroxyethyl)-1H-pyrazol-1-yl)-2-methylpyrimidin-4(3H)-one] | 4.4
24 | Cc1nc(-n2cc(C(C)(O)c3ccc(C(F)(F)F)cc3Cl)cn2)cc(=O)[nH]1 (single isomer, unassigned) [Example 118, (S)- or (R)-6-(4-(1-(2-chloro-4-(trifluoromethyl)phenyl)-1-hydroxyethyl)-1H-pyrazol-1-yl)-2-methylpyrimidin-4(3H)-one] | 47.8
25 | CCc1ccc(C(CO)c2cnn(-c3cc(=O)[nH]c(C)n3)c2)c(Cl)c1 (single isomer, unassigned) [Example 120, (R)- or (S)-6-(4-(1-(2-chloro-4-ethylphenyl)-2-hydroxyethyl)-1H-pyrazol-1-yl)-2-methylpyrimidin-4(3H)-one] | 321
26 | CCc1ccc(C(CO)c2cnn(-c3cc(=O)[nH]c(C)n3)c2)c(Cl)c1 (single isomer, unassigned) [Example 121, (S)- or (R)-6-(4-(1-(2-chloro-4-ethylphenyl)-2-hydroxyethyl)-1H-pyrazol-1-yl)-2-methylpyrimidin-4(3H)-one] | 8.4
27 | Cc1nc(-c2cnn(C(CO)c3ccc(C(F)(F)F)cc3Cl)c2)cc(=O)[nH]1 (single isomer, unassigned) [Example 122, (R)- or (S)-6-(1-(1-(2-chloro-4-(trifluoromethyl)phenyl)-2-hydroxyethyl)-1H-pyrazol-4-yl)-2-methylpyrimidin-4(3H)-one] | 616
